Earlier results, collected in patent publication US11789016B2, “Methods, systems and kits for in-pen assays” (Berkeley Lights, Inc., priority 2017, dated 2023).
pKd: −log10 of the molar value. Read-outs that look alike come from different tables or passages of the source. One block for each substance: values may come before it.

Target: IgG
Settings: for pKd: read-out: Affinity for IgG

Substance: CPD 1: Protein A-AF594, Pierce Recombinant Protein A (ThermoFisher Cat. # 77674)
Affinity for IgG (order of magnitude in words): nanomolar

pKd (Fc of hIgG): 7.12
Substance: 5′-rGp-rGp-rAp-rGp-rGp-fUp-rGp-fCp-fUp-fCp-fCp-rGp-rAp-rAp-rAp-rGp-rGp-rAp-rAp-fCp-fUp-fCp-fCp-3′ [CPD 5]

Substance: DCAWHLGELVWCT [CPD 4, Asp Cys Ala Trp His Leu Gly Glu Leu Val Trp Cys Thr]
pKd (Fc): 7.00
